The source of these data is PMC9182086, “Identification of New Non-BBB Permeable Tryptophan Hydroxylase Inhibitors for Treating Obesity and Fatty Liver Disease” (Molecules, 2022).

A value given as a limit tells only on which side of the number the result lay.

Data set [1] is described as follows: Liver microsomal stability (human). It is filed as in vitro ADME. The note with it: after 30 min incubation, 1 µM. On the procedure: For the liver microsomal activity, test compounds were incubated with rat and mouse’s liver microsomes, respectively, at a final concentration of 1 µM, in the presence of an NADPH regeneration system in 0.1 M potassium phosphate buffer (pH 7.4) for […] at 37 °C in shaking incubator. The microsomal reaction was terminated by adding four volumes of ice-cold acetonitrile and then centrifuged at 4000 rpm for 20 min. The supernatant was collected and analyzed by a LC-MS/MS system. The percentage of the parent compound remaining was calculated by comparing peak areas.

For another data set, the target named is T1, CYP2C19 (Homo sapiens, UniProt P33261).
T1 construct: purchased Promega Corp. V9880
T1 sequence (P33261 whole entry): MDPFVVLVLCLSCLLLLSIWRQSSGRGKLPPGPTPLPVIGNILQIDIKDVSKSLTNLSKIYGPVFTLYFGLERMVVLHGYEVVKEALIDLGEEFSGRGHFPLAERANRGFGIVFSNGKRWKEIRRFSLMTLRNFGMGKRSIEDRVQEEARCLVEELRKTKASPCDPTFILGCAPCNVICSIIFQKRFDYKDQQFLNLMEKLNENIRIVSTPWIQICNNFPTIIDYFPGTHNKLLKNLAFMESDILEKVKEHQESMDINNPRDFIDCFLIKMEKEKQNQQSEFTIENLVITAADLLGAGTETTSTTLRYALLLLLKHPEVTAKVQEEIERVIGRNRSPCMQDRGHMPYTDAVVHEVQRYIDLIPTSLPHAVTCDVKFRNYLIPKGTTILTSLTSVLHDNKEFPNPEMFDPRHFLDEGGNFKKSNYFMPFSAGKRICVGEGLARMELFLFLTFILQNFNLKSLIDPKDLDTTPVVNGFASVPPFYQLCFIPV
Briefly: CYP inhibition assay (P450-Glo) CYP2C19. The note with it: P450-Glo CYP2C19 Screening System (CYP enzyme), read-out: CYP inhibition 2C19. Format: in vitro ADME. The source says: (§1) Five major screening systems: P450-Glo CYP1A2 Screening System (Catalog# V9770), P450-Glo CYP2C9 Screening System (Catalog# V9790), P450-Glo CYP2C19 (Catalog# V9880), P450-Glo CYP 2D6 (Catalog# V9890), and P450-Glo CYP3A4 (Catalog# V9920) were attained from Promega Corp. (Madison, WI). α-naphthoflavone, sulfaphenazole, amitriptyline, quinidine, and ketoconazole were identified as positive control inhibitors for CYP1A2, CYP2C9, CYP2C19, CYP2D6, and CYP3A4, respectively. The CYP enzyme and substrate were combined in a potassium phosphate (KPO4) buffer and the reaction is initiated by adding an NADPH regenerating system. The volume of the mixture (12.5 μL in a 96-well plate) was combined with an equal volume of test compound solution and positive control inhibitor (12.5 μL added to make the volume 25 μL). The reaction of the NADPH regeneration system was initiated by adding a 2× concentration of NADPH solution. Then an equal volume of luciferin detection reagent was added. The plates were incubated at room temperature for 20 min and the luminescence signal was measured by a microplate reader device.

The next data set addresses T2, CYP3A4 (Homo sapiens, UniProt P08684).
T2 construct: purchased Promega Corp. V9920
Description: CYP inhibition assay (P450-Glo) CYP3A4. It is filed as in vitro ADME. The conditions noted are these: P450-Glo CYP3A4 Screening System (CYP enzyme), read-out: CYP inhibition 3A4.
Text: as §1

In the next data set the target is T3, hERG channel protein (Homo sapiens, UniProt Q12809).
T3 construct: purchased Thermo Fisher Scientific, Inc
T3 sequence (Q12809 whole entry): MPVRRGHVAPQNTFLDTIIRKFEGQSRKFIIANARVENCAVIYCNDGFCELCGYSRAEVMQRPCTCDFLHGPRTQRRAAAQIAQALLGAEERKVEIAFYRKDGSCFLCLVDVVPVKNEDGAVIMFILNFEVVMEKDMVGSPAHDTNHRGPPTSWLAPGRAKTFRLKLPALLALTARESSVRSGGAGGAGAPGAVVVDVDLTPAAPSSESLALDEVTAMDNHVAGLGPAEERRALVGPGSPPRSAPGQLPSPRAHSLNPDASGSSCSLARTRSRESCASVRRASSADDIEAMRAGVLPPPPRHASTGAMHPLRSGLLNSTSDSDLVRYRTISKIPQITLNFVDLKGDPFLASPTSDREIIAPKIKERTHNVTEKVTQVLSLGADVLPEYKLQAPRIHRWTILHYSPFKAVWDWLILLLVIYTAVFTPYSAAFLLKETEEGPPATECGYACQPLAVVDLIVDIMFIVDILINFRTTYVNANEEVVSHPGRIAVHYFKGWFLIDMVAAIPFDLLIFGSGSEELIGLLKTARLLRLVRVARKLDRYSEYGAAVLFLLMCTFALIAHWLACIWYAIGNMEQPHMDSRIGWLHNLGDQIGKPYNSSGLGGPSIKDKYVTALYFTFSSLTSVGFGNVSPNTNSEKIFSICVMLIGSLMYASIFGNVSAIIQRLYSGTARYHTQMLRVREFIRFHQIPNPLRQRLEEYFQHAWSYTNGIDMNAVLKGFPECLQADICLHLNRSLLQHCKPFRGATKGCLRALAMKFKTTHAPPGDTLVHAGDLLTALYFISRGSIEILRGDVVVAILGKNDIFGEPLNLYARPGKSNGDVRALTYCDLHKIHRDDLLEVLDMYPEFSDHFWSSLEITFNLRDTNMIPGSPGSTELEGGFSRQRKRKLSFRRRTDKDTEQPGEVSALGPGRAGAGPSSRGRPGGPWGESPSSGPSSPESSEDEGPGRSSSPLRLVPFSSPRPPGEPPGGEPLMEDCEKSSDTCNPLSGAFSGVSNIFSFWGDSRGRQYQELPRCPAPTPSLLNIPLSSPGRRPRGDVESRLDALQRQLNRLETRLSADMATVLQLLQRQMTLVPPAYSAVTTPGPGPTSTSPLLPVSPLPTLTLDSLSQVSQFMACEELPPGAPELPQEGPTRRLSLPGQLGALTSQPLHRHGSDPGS
Briefly: hERG inhibition (Predictor hERG FP binding kit). The conditions noted are these: at 10 uM. On the procedure:
The inhibition of binding affinity by small molecules was measured using the PredictorTM hERG FP kit (Thermo Fisher Scientific, Inc., Rockford, IL, USA). The procedure was carried out in accordance with the manufacturer's instructions. Briefly, tracer (PredictorTM hERG tracer red) was prepared with dilution in the binding buffer. The binding assay was conducted in 384 well black flat-bottom microplates (Corning Life Sciences, Lowell, MA, USA) after the serial addition of 5 μL of a 4 nM tracer, 5 μL of test compounds, and a 10 μL membrane fraction containing hERG channel protein. The mixtures were incubated at room temperature for 2 h. The fluorescence polarization (FP) was measured with an excitation filter of 530 nm and an emission filter of 585 nm using a microplate reader (Infinite […]; Tecan, Mannedorf, Switzerland).

The subject of a further data set is 3T3-L1 cells. Briefly: In vitro efficacy test: lipogenic/adipogenic gene expression during 3T3-L1 adipocyte differentiation. Format: cell-based, mouse. The note with it: 10 μM or 50 μM, vs vehicle. How it is done:
3T3-L1 cells (American Type Culture Collection, Manassas, VA, USA) were cultured in DMEM supplemented with 10% FCS and […] P/S in a humidified chamber under 5% atmospheric CO2 at 37 °C. Two days after reaching confluence, cells were further cultured in adipocyte differentiation medium (DMEM/10% FBS, P/S, 0.5 mM IBMX, 1 μg mL^−1 insulin, and 1 μM dexamethasone) (day 0). After 2 days, the medium was changed to adipocyte maintenance medium (DMEM/10% FBS, 1 μg mL^−1 insulin, P/S) (day 2), and the media was changed every 2 days from day 4 to 8. Cells were treated with compound 6 at 10 or 50 μM concentrations throughout adipocyte differentiation (day 0 thru day 8). On day 8, differentiated 3T3-L1 […] were harvested for analysis of gene expression.
Total RNA was extracted from 3T3-L1 cells using Trizol reagent (Invitrogen, Carlsbad, CA, USA), purified using a RNeasy Lipid Tissue Mini kit (Qiagen, Hilden, Germany), and an aliquot (2 µg) of total RNA was reversed transcribed using the RevertAidTM First Strand cDNA Synthesis Kit (Thermo Fisher Scientific, Waltham, MA, USA) according to the manufacturer’s instructions. Real-time PCR was carried out using SYBR Green (Power SYBR Green PCR Master Mix, Thermo Fisher Scientific) with a ViiA™ 7 Real-Time PCR system (Applied Biosystems, Waltham, MA, USA). […]

T2 sequence (P08684 whole entry): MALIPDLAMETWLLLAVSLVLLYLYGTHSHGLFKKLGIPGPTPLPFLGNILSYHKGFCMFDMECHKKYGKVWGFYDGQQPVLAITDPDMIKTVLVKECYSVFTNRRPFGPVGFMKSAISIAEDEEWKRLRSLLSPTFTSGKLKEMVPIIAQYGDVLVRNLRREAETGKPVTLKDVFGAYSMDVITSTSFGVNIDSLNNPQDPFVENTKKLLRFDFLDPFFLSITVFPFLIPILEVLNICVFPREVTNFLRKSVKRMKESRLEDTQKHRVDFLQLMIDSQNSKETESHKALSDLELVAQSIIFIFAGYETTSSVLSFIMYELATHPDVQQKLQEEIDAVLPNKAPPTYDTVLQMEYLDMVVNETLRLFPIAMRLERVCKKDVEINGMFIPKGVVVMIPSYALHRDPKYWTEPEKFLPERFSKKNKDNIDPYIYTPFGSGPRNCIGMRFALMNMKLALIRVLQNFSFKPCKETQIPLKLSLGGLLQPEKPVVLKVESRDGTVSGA

On to `Cc1ccn(-c2cc(Cl)ccc2[C@@H](Oc2ncnc3c(-c4ccc(C[C@H](N)C(=O)O)cc4)csc23)C(F)(F)F)n1.Cl` [Compound 18i, (S)-2-amino-3-(4-(4-((R)-1-(4-chloro-2-(3-methyl-1H-pyrazol-1-yl)phenyl)-2,2,2-trifluoroethoxy)thieno[3,2-d]pyrimidin-7-yl)phenyl)propanoic acid hydrochloride], for which the “Liver microsomal stability (human), parent remained” value in data set [1] is 99% parent remained after 30 min incubation. Besides, the inhibition at 10 µM is 46.5% on CYP2C19 and 45.3% at CYP3A4. The Herg inhibition at hERG channel protein was less than 1% inhibition at 10 uM. Moreover, the “Expression of lipogenic genes Fasn, Srebp1c and adipogenic transcription factors Pparg, Cebpa” value in the data set with 3T3-L1 cells is “decreased expression of key lipogenic genes”.
